# Laboratory results reported in patent US20180110754A1, “CENICRIVIROC FOR THE TREATMENT OF FIBROSIS” (Tobira Therapeutics, Inc., priority 2015, published 2018).
# Assays:
# [1] = Study 202: treatment-emergent laboratory abnormalities (DAIDS grades; CPK, ALT, AST, bilirubin); type: in vivo; settings: CVC 200 mg (N = 57), through Week 48
# From the text: The number of subjects with graded treatment-emergent laboratory abnormalities in selected liver parameters of interest is shown in Table 34. No Grade 4 ALT or AST elevations were observed. Except for one Grade 3 AST elevation, all ALT and AST elevations were Grade 1 or Grade 2. […] All abnormalities in bilirubin were Grade 1 or Grade 2. […]
# [2] = tested on: MCP-1, sCD14, hs-CRP, IL-6, D-dimer, fibrinogen; assay: Study 202: biomarkers of inflammation and immune function; type: in vivo, human
# Method: As an exploratory analysis, levels of inflammation biomarkers MCP-1, sCD14, high sensitivity C-reactive protein [hs-CRP], interleukin-6 [IL-6], D-dimer, and fibrinogen) were measured. Baseline values and changes from baseline at Week 24 and Week 48 of MCP-1, sCD14, hs-CRP, IL-6, D-dimer, and fibrinogen are summarized in Table 25.
# The sCD14 samples were originally analyzed in 2 separate batches: Batch 1 included samples leading up to the Week 24 primary analysis and Batch 2 included Week 32 and Week 48 (end of study) samples. A repeat analysis of archived samples all analyzed in one batch was conducted for consistency in analysis across time points. To control for the effects of covariates, a linear mixed-model repeated-measures analysis was conducted on the changes from baseline in sCD14 (analysis dated September 2013).
smiles,measurement,setting,value
"CCCCOCCOc1ccc(-c2ccc3c(c2)/C=C(/C(=O)Nc2ccc([S@@+]([O-])Cc4cncn4CCC)cc2)CCCN3CC(C)C)cc1 [CVC, (S)-8-[4-(2-Butoxyethoxy)phenyl]-1-isobutyl-N-(4-{[(1-propyl-1H-imidazol-5-yl)methyl]sulfinyl}phenyl)-1,2,3,4-tetrahydro-1-benzazocine-5-carboxamide]","Bilirubin, worst Grade 3, n subjects",[1],0
same,"Bilirubin, worst Grade 4, n subjects",[1],0
same,"CPK increased, worst Grade 3, n subjects",[1],6
same,"CPK increased, worst Grade 4, n subjects",[1],3
same,"Creatine phosphokinase (CPK) increased (Grade 3 or 4), n subjects",[1],9
same,"Fibrinogen decreased (Grade 3 or 4), n subjects",[1],2
same,"Fibrinogen decreased, worst Grade 3, n subjects",[1],2
same,"Fibrinogen decreased, worst Grade 4, n subjects",[1],0
same,"Hemoglobin decreased (Grade 3 or 4), n subjects",[1],0
same,"Hemoglobin decreased, worst Grade 3, n subjects",[1],0
same,"Hemoglobin decreased, worst Grade 4, n subjects",[1],0
same,"Neutrophils decreased (Grade 3 or 4), n subjects",[1],0
same,"Neutrophils decreased, worst Grade 3, n subjects",[1],0
same,"Neutrophils decreased, worst Grade 4, n subjects",[1],0
same,"Phosphate decreased (Grade 3 or 4), n subjects",[1],2
same,"Phosphate decreased, worst Grade 3, n subjects",[1],2
same,"Phosphate decreased, worst Grade 4, n subjects",[1],0
same,"Prothrombin time/INR increased, worst Grade 3, n subjects",[1],0
same,"Prothrombin time/INR increased, worst Grade 4, n subjects",[1],0
same,"D-dimer baseline value, mean",[2]; CVC 100 mg,187 ng/mL
same,"D-dimer baseline value, median",[2]; CVC 100 mg,150 ng/mL
same,"D-dimer change from baseline at Week 24, mean",[2]; CVC 100 mg,-32 ng/mL
same,"D-dimer change from baseline at Week 24, median",[2]; CVC 100 mg,-1.0 ng/mL
same,"D-dimer change from baseline at Week 48, mean",[2]; CVC 100 mg,-41 ng/mL
same,"D-dimer change from baseline at Week 48, median",[2]; CVC 100 mg,-1.0 ng/mL
same,"Fibrinogen baseline value, mean",[2]; CVC 100 mg,236 mg/dL
same,"Fibrinogen baseline value, median",[2]; CVC 100 mg,229 mg/dL
same,"Fibrinogen change from baseline at Week 24, mean",[2]; CVC 100 mg,-3 mg/dL
same,"Fibrinogen change from baseline at Week 24, median",[2]; CVC 100 mg,-14 mg/dL
same,"Fibrinogen change from baseline at Week 48, mean",[2]; CVC 100 mg,11 mg/dL
same,"Fibrinogen change from baseline at Week 48, median",[2]; CVC 100 mg,15 mg/dL
same,"IL-6 baseline value, mean",[2]; CVC 100 mg,2.51 pg/mL
same,"IL-6 baseline value, median",[2]; CVC 100 mg,1.90 pg/mL
same,"IL-6 change from baseline at Week 24, mean",[2]; CVC 100 mg,0.42 pg/mL
same,"IL-6 change from baseline at Week 24, median",[2]; CVC 100 mg,0.00 pg/mL
same,"IL-6 change from baseline at Week 48, mean",[2]; CVC 100 mg,0.29 pg/mL
same,"IL-6 change from baseline at Week 48, median",[2]; CVC 100 mg,0.00 pg/mL
same,"MCP-1 baseline value, mean",[2]; CVC 100 mg,128 pg/mL
same,"MCP-1 baseline value, median",[2]; CVC 100 mg,110 pg/mL
same,"MCP-1 change from baseline at Week 24, mean",[2]; CVC 100 mg,493 pg/mL
same,"MCP-1 change from baseline at Week 24, median",[2]; CVC 100 mg,429 pg/mL
same,"MCP-1 change from baseline at Week 48, mean",[2]; CVC 100 mg,636 pg/mL
same,"MCP-1 change from baseline at Week 48, median",[2]; CVC 100 mg,523 pg/mL
same,"hs-CRP baseline value, mean",[2]; CVC 100 mg,0.39 mg/dL
same,"hs-CRP baseline value, median",[2]; CVC 100 mg,0.15 mg/dL
same,"hs-CRP change from baseline at Week 24, mean",[2]; CVC 100 mg,-0.16 mg/dL
same,"hs-CRP change from baseline at Week 24, median",[2]; CVC 100 mg,-0.03 mg/dL
same,"hs-CRP change from baseline at Week 48, mean",[2]; CVC 100 mg,-0.08 mg/dL
same,"hs-CRP change from baseline at Week 48, median",[2]; CVC 100 mg,-0.01 mg/dL
same,"sCD14 (original values) baseline value, mean",[2]; CVC 100 mg,1.8e+06 pg/mL
same,"sCD14 (original values) baseline value, median",[2]; CVC 100 mg,1.73e+06 pg/mL
same,"sCD14 (original values) change from baseline at Week 12, mean",[2]; CVC 100 mg,-140000 pg/mL
same,"sCD14 (original values) change from baseline at Week 12, median",[2]; CVC 100 mg,-160000 pg/mL
same,"sCD14 (original values) change from baseline at Week 24, mean",[2]; CVC 100 mg,-190000 pg/mL
same,"sCD14 (original values) change from baseline at Week 24, median",[2]; CVC 100 mg,-180000 pg/mL
same,"sCD14 (original values) change from baseline at Week 32, mean",[2]; CVC 100 mg,110000 pg/mL
same,"sCD14 (original values) change from baseline at Week 32, median",[2]; CVC 100 mg,120000 pg/mL
same,"sCD14 (original values) change from baseline at Week 48, mean",[2]; CVC 100 mg,100000 pg/mL
same,"sCD14 (original values) change from baseline at Week 48, median",[2]; CVC 100 mg,100000 pg/mL
same,"D-dimer baseline value, mean",[2]; CVC 200 mg,184 ng/mL
same,"D-dimer baseline value, median",[2]; CVC 200 mg,125 ng/mL
same,"D-dimer change from baseline at Week 24, mean",[2]; CVC 200 mg,-64 ng/mL
same,"D-dimer change from baseline at Week 24, median",[2]; CVC 200 mg,-50 ng/mL
same,"D-dimer change from baseline at Week 48, mean",[2]; CVC 200 mg,-70 ng/mL
same,"D-dimer change from baseline at Week 48, median",[2]; CVC 200 mg,-50 ng/mL
same,"Fibrinogen baseline value, mean",[2]; CVC 200 mg,248 mg/dL
same,"Fibrinogen baseline value, median",[2]; CVC 200 mg,260 mg/dL
same,"Fibrinogen change from baseline at Week 24, mean",[2]; CVC 200 mg,-7 mg/dL
same,"Fibrinogen change from baseline at Week 24, median",[2]; CVC 200 mg,-8 mg/dL
same,"Fibrinogen change from baseline at Week 48, mean",[2]; CVC 200 mg,-10 mg/dL
same,"Fibrinogen change from baseline at Week 48, median",[2]; CVC 200 mg,-13 mg/dL
same,"IL-6 baseline value, mean",[2]; CVC 200 mg,3.34 pg/mL
same,"IL-6 baseline value, median",[2]; CVC 200 mg,1.90 pg/mL
same,"IL-6 change from baseline at Week 24, mean",[2]; CVC 200 mg,0.81 pg/mL
same,"IL-6 change from baseline at Week 24, median",[2]; CVC 200 mg,0.00 pg/mL
same,"IL-6 change from baseline at Week 48, mean",[2]; CVC 200 mg,-0.04 pg/mL
same,"IL-6 change from baseline at Week 48, median",[2]; CVC 200 mg,0.00 pg/mL
same,"MCP-1 baseline value, mean",[2]; CVC 200 mg,153 pg/mL
same,"MCP-1 baseline value, median",[2]; CVC 200 mg,137 pg/mL
same,"MCP-1 change from baseline at Week 24, mean",[2]; CVC 200 mg,753 pg/mL
same,"MCP-1 change from baseline at Week 24, median",[2]; CVC 200 mg,695 pg/mL
same,"MCP-1 change from baseline at Week 48, mean",[2]; CVC 200 mg,900 pg/mL
same,"MCP-1 change from baseline at Week 48, median",[2]; CVC 200 mg,756 pg/mL
same,"hs-CRP baseline value, mean",[2]; CVC 200 mg,0.46 mg/dL
same,"hs-CRP baseline value, median",[2]; CVC 200 mg,0.15 mg/dL
same,"hs-CRP change from baseline at Week 24, mean",[2]; CVC 200 mg,-0.04 mg/dL
same,"hs-CRP change from baseline at Week 24, median",[2]; CVC 200 mg,-0.04 mg/dL
same,"hs-CRP change from baseline at Week 48, mean",[2]; CVC 200 mg,-0.18 mg/dL
same,"hs-CRP change from baseline at Week 48, median",[2]; CVC 200 mg,-0.04 mg/dL
same,"sCD14 (original values) baseline value, mean",[2]; CVC 200 mg,1.88e+06 pg/mL
same,"sCD14 (original values) baseline value, median",[2]; CVC 200 mg,1.86e+06 pg/mL
same,"sCD14 (original values) change from baseline at Week 12, mean",[2]; CVC 200 mg,-230000 pg/mL
same,"sCD14 (original values) change from baseline at Week 12, median",[2]; CVC 200 mg,-210000 pg/mL
same,"sCD14 (original values) change from baseline at Week 24, mean",[2]; CVC 200 mg,-230000 pg/mL
same,"sCD14 (original values) change from baseline at Week 24, median",[2]; CVC 200 mg,-190000 pg/mL
same,"sCD14 (original values) change from baseline at Week 32, mean",[2]; CVC 200 mg,-20000 pg/mL
same,"sCD14 (original values) change from baseline at Week 32, median",[2]; CVC 200 mg,-20000 pg/mL
same,"sCD14 (original values) change from baseline at Week 48, mean",[2]; CVC 200 mg,-40000 pg/mL
same,"sCD14 (original values) change from baseline at Week 48, median",[2]; CVC 200 mg,-40000 pg/mL
